{"source": "patent US11759462B2", "about": "“Spirocyclic compounds as tryptophan hydroxylase inhibitors” (priority 2013, dated 2023)"}
{"target": "T1, Recombinant human TPH1 (MBP tagged) (Homo sapiens, UniProt P17752)", "T1 construct": "cloning full length human TPH1 cDNA in to a bacterial pMAL-c5E expression vector; made in house; host or cells: E. coli BL21 (DE3)", "T1 sequence (P17752 1-444)": "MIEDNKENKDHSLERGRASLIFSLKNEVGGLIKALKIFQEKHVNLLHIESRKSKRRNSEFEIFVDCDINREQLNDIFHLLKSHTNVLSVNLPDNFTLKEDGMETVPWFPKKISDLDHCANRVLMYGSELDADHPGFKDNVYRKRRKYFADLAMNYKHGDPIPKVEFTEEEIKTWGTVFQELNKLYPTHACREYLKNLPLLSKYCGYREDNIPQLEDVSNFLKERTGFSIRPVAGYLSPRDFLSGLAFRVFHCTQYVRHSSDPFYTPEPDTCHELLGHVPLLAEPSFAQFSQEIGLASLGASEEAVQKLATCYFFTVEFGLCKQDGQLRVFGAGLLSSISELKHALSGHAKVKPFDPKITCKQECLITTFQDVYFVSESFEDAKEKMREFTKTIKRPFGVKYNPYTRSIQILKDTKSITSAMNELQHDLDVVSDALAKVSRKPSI", "assay": "TPH1 in vitro inhibition assay (kinetic fluorescence)", "type": "biochemical", "details": "read-out: TPH1 Range (TPH1 inhibition IC50)", "method_in_brief": "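Final mix: 15 nM MBP-TPH1, 30 μM Trp, 36 μM 6-methyltetrahydropterin, 25 μM ferrous ammonium sulfate, 50 mM MES pH 7.1, 1% DMSO, room temperature.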", "units": {"IC50": "nM"}}
{"molecule": "CCN(CC)C(=O)c1ccc(-c2ccc([C@@H](Oc3cc(N4CCC5(CC4)CN[C@H](C(=O)O)C5)nc(N)n3)C(F)(F)F)c(-n3ccc(C)n3)c2)cc1", "note": "[Example 1cm, (S)-8-(2-amino-6-((R)-1-(4′-(diethylcarbamoyl)-3-(3-methyl-1H-pyrazol-1-yl)-[l,l′-biphenyl]-4-yl)-2,2,2-trifluoroethoxy)pyrimidin-4-yl)-2,8-diazaspiro[4.5]decane-3-carboxylic acid]", "IC50": "< 50"}
{"molecule": "COCCOc1cc(Cl)ccc1[C@@H](Oc1cc(N2CCC3(CC2)CN[C@H](C(=O)O)C3)nc(N)n1)C(F)(F)F", "note": "[Example 36, (S)-8-(2-amino-6-((R)-1-(4-chloro-2-(2-methoxyethoxy)phenyl)-2,2,2-trifluoroethoxy)pyrimidin-4-yl)-2,8-diazaspiro[4.5]decane-3-carboxylic acid]", "IC50": "3000 to 10000"}
{"molecule": "Cc1ccn(-c2cc(-c3cc(Cl)cc(C(F)(F)F)c3)ccc2[C@@H](Oc2cc(N3CCC4(CC3)CN[C@H](C(=O)O)C4)nc(N)n2)C(F)(F)F)n1", "note": "[Example 1ak, (S)-8-(2-amino-6-((R)-1-(3′-chloro-3-(3-methyl-1H-pyrazol-1-yl)-5′-(trifluoromethyl)-[1,1′-biphenyl]-4-yl)-2,2,2-trifluoroethoxy)pyrimidin-4-yl)-2,8-diazaspiro[4.5]decane-3-carboxylic acid]", "IC50": "50 to 300"}
{"molecule": "Nc1nc(O[C@H](c2ccccc2-c2cccc(Cl)c2)C(F)(F)F)cc(N2CCC3(CC2)CN[C@H](C(=O)O)C3)n1", "note": "[Example 42a, (S)-8-(2-amino-6-((R)-1-(3′-chloro-[1,1′-biphenyl]-2-yl)-2,2,2-trifluoroethoxy)pyrimidin-4-yl)-2,8-diazaspiro[4.5]decane-3-carboxylic acid]", "IC50": "< 50"}
{"molecule": "Nc1nc(O[C@H](c2ccc(Cl)cc2-c2cccc(C(=O)NC3CCC(O)CC3)c2)C(F)(F)F)cc(N2CCC3(CC2)CN[C@H](C(=O)O)C3)n1", "note": "(stereo partly drawn) [Example 34cc, (S)-8-(2-amino-6-((R)-1-(5-chloro-3′-(((1R,4R)-4-hydroxycyclohexyl)carbamoyl)-[1,1′-biphenyl]-2-yl)-2,2,2-trifluoroethoxy)pyrimidin-4-yl)-2,8-diazaspiro[4.5]decane-3-carboxylic acid]", "IC50": "50 to 300"}
{"molecule": "Nc1nc(O[C@H](c2ccc(-c3cccc(C(=O)N4CCCCC4)c3)cc2)C(F)(F)F)cc(N2CCC3(CC2)CN[C@H](C(=O)O)C3)n1", "note": "[Example 55bx, (S)-8-(2-amino-6-((R)-2,2,2-trifluoro-1-(3′-(piperidine-1-carbonyl)-[1,1′-biphenyl]-4-yl)ethoxy)pyrimidin-4-yl)-2,8-diazaspiro[4.5]decane-3-carboxylic acid]", "IC50": "300 to 3000"}
{"molecule": "(S)-8-(6-((R)-1-(4-(1H-indol-6-yl)-2-(3-methyl- 1H-pyrazol-1-yl)phenyl)-2,2,2-trifluoroethoxy)- 2-aminopyrimidin-4-yl)-2,8- diazaspiro[4.5]decane-3-carboxylic acid [Example 1aa]", "IC50": "< 50"}
{"molecule": "Cc1c2ccc(-c3ccc([C@@H](Oc4cc(N5CCC6(CC5)CN[C@H](C(=O)O)C6)nc(N)n4)C(F)(F)F)cc3)cc2nn1C", "note": "[Example 55bb]", "IC50": "< 50"}
{"molecule": "Cc1ccn(-c2ccc(-c3ccc(F)c(F)c3)cc2[C@@H](Oc2cc(N3CCC4(CC3)CN[C@H](C(=O)O)C4)nc(N)n2)C(F)(F)F)n1", "note": "[Example 19o, (S)-8-(2-amino-6-((R)-1-(3′,4′-difluoro-4-(3-methyl-1H-pyrazol-1-yl)-[1,1′-biphenyl]-3-yl)-2,2,2-trifluoroethoxy)pyrimidin-4-yl)-2,8-diazaspiro[4.5] decane-3-carboxylic acid]", "IC50": "< 50"}
{"molecule": "CCCc1ccc([C@@H](Oc2cc(N3CCC4(CC3)CN[C@H](C(=O)O)C4)nc(N)n2)C(F)(F)F)c(-c2cccc(S(C)(=O)=O)c2)c1", "note": "[Example 54a, (S)-8-(2-Amino-6-((R)-2,2,2-trifluoro-1-(3′-(methylsulfonyl)-5-propyl-[1,1′-biphenyl]-2-yl)ethoxy)pyrimidin-4-yl)-2,8-diazaspiro[4.5]decane-3-carboxylic acid]", "IC50": "< 50"}
